Results as given in ChEMBL document CHEMBL1129632, “Synthesis and contractile activities of cyclic thrombin receptor-derived peptide analogues with a Phe-Leu-Leu-Arg motif: importance of the Phe/Arg relative conformation and the primary amino group for activity” (1996).
Residues, ends and D or L forms follow the SMILES beside them.

species on record: Rattus norvegicus; test: Relative biological activity in gastric contractile assay of rat (Relative activity is EC(peptide)/EC (compound 4) [EC contraction of each agonist to that of compound 4]); format: functional, Stomach

Structure (SMILES)	Relative activity
CC(C)C[C@H](NC(=O)[C@H](CC(C)C)NC(=O)[C@H](Cc1ccccc1)NC(=O)[C@@H](N)CO)C(=O)N[C@@H](CCCN=C(N)N)C(N)=O	1
CC(C)C[C@@H]1NC(=O)[C@H](Cc2ccccc2)NC(=O)CNC(=O)[C@H](CCCN=C(N)N)NC(=O)[C@H](CC(C)C)NC1=O (HELM PEPTIDE1{F.L.L.R.G}$PEPTIDE1,PEPTIDE1,1:R1-5:R2$$$V2.0)	390
CC(C)C[C@@H]1NC(=O)[C@H](CC(C)C)NC(=O)[C@H](Cc2ccccc2)NC(=O)[C@@H](N)CCCCNC(=O)[C@H](CCCN=C(N)N)NC1=O (HELM PEPTIDE1{K.F.L.L.R}$PEPTIDE1,PEPTIDE1,1:R3-5:R2$$$V2.0)	2.4
CC(C)C[C@@H]1NC(=O)[C@H](Cc2ccccc2)NC(=O)CCCCCNC(=O)[C@H](CCCN=C(N)N)NC(=O)[C@H](CC(C)C)NC1=O (single isomer, unassigned)	>1000
